Counter-ions that a name gives are not always drawn.
How the values were obtained:
Format in all cases: biochemical
recombinant human VAP-1 = biological target: T1, recombinant human VAP-1 (Homo sapiens, UniProt Q16853); test: Activity on recombinant human VAP-1, Amplex Red HRP-coupled hydrogen peroxide assay, benzylamine substrate; conditions: recombinant human VAP-1, benzylamine substrate, 30 min preincubation at 37° C.; read-out: Inhibitory Activity (IC50, nM) human VAP-1
T1 construct: purchased R&D systems
T1 sequence (Q16853 1-763): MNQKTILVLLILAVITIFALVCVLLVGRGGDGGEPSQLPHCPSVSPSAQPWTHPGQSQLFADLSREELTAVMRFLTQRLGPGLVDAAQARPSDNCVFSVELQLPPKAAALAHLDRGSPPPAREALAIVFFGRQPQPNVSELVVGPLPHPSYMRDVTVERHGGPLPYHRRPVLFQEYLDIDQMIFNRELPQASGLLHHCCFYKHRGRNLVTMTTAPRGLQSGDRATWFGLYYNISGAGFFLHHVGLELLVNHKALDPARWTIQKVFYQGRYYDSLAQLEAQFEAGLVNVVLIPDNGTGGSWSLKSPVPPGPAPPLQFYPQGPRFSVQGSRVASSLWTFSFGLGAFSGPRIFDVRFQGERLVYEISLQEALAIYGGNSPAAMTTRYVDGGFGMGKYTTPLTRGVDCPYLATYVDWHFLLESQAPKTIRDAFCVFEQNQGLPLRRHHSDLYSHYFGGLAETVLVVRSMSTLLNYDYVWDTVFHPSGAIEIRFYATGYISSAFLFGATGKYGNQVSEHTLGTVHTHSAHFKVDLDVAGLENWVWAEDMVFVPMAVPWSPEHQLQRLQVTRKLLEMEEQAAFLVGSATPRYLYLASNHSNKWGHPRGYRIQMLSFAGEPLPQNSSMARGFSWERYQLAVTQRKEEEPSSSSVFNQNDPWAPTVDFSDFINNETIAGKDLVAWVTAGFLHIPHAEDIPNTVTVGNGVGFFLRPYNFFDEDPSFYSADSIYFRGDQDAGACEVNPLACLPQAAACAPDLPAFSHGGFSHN
Procedure, shortened: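 H2O2 generation from 1 mM benzylamine was coupled via 1 U/mL HRP to 200 uM Amplex Red; inhibitors, serially diluted 1:3 over 8 points with under 1% final DMSO, had been preincubated 30 min at 37 °C. IC50 from percentage drop in rate.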

[1] = biological target: T2, recombinant human MAO-A (monoamine oxidase-A) (Homo sapiens, UniProt P21397); test: Activity on recombinant human MAO-A, Amplex Red method, 0.5 mM tyramine substrate; conditions: 0.5 mM tyramine, read-out: Inhibitory Activity (IC50, nM) MAO-A
T2 construct: purchased Sigma-Aldrich
T2 sequence (P21397 1-527): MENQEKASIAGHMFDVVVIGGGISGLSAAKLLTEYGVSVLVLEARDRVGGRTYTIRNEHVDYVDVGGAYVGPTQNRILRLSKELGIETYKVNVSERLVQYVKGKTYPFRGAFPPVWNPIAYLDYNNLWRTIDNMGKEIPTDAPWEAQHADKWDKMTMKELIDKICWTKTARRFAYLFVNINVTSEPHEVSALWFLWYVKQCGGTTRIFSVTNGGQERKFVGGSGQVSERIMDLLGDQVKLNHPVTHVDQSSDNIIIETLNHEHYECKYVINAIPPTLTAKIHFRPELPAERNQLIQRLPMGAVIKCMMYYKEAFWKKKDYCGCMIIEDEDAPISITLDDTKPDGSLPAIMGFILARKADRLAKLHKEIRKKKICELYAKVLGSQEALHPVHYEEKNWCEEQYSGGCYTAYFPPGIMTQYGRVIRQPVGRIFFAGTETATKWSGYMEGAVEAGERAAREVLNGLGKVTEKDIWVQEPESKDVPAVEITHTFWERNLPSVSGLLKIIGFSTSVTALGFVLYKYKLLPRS
Procedure, shortened: (§1)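 First, serially diluted compounds were incubated with recombinant enzyme in 50 mM sodium phosphate, pH 7.4, for 30 min at 37° C. Next, Amplex Red (200 uM), HRP (1 U/mL) and tyramine (0.5 mM, MAO-A) or benzylamine (1 mM, MAO-B) were added. Then fluorescence was monitored over 1-2 h and IC50 fitted.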

[2] = biological target: T3, recombinant human MAO-B (monoamine oxidase-B) (Homo sapiens, UniProt P27338); test: Activity on recombinant human MAO-B, Amplex Red method, 1 mM benzylamine substrate; conditions: 1 mM benzylamine, read-out: Inhibitory Activity (IC50, nM) MAO-B
T3 construct: purchased Sigma-Aldrich
T3 sequence (P27338 1-520): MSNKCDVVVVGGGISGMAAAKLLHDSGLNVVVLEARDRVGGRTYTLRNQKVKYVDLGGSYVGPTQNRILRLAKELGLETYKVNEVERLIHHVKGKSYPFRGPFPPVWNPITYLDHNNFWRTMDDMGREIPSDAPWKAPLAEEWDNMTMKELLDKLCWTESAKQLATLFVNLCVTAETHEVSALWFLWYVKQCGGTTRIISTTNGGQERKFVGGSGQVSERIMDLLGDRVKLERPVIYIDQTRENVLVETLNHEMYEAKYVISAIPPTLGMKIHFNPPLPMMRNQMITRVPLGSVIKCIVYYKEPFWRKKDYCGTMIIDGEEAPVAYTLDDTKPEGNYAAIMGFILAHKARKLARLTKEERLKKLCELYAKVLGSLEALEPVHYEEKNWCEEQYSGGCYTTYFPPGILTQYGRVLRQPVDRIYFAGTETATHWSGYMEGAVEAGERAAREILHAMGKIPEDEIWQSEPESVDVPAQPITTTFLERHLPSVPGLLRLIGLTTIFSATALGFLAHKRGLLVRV
Procedure, shortened: as §1

[3] = biological target: T4, recombinant human DAO (diamine oxidase) (Homo sapiens, UniProt P19801); test: Activity on recombinant human DAO, Amplex Red method, 1 mM putrescine substrate; conditions: recombinant human DAO, 1 mM putrescine; * = between 10 and 100 nM, ** = between 300 and 1000 nM; read-out: Inhibitory Activity (IC50, nM) DAO
T4 construct: purchased R&D systems
T4 sequence (P19801 20-751): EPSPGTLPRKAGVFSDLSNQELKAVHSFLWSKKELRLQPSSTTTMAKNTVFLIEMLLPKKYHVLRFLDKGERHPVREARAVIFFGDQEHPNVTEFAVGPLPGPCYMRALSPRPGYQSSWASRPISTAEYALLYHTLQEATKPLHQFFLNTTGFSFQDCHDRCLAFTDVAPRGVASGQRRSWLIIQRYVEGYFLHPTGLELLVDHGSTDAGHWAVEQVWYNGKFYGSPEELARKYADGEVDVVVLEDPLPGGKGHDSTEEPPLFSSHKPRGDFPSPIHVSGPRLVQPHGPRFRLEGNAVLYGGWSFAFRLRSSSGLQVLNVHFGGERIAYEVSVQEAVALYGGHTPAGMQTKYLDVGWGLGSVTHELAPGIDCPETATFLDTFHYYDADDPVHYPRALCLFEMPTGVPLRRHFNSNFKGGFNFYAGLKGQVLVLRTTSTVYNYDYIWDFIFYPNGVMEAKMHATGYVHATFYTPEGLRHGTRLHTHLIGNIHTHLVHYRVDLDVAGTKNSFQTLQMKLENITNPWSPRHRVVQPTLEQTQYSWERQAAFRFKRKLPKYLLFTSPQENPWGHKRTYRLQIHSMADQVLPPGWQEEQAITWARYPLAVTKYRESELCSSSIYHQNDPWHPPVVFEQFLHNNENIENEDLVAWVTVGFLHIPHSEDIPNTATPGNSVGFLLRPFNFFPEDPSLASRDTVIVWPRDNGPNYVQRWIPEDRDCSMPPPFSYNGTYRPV
Procedure, shortened: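 Inhibition of recombinant human DAO (diamine oxidase, R&D systems) was assessed with the Amplex Red Hydrogen Peroxide Assay Kit. Hydrogen peroxide produced from 1 mM putrescine was detected through an HRP-coupled reaction that converts Amplex Red into fluorescent resorufin, read at 544 nm excitation and 590 nm emission. IC50 values came from four-parameter logistic fits in GraphPad Prism.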

| IC50 (recombinant human VAP-1) | IC50 [1] | IC50 [2] | IC50 [3] | SMILES |
| --- | --- | --- | --- | --- |
| 1.6 nM | > 100000 nM | 617 nM | < 100 nM | Cc1cc(-c2ccc3sc(N)nc3c2)ncc1-n1cnn(C/C(=C/F)CN)c1=O [Example 127, 4-[6-(2-amino-1,3-benzothiazol-5-yl)-4-methylpyridin-3-yl]-2-[(2E)-2-(aminomethyl)-3-fluoroprop-2-en-1-yl]-2,4-dihydro-3H-1,2,4-triazol-3-one] |
| 0.45 nM | > 100000 nM | 10 nM | < 1 nM | CS(=O)(=O)c1ccc(-c2ccc(-n3cnn(C/C(=C\F)CN)c3=O)nc2)cc1 [Example 129, 2-[(2Z)-2-(aminomethyl)-3-fluoroprop-2-en-1-yl]-4-{5-[4-(methylsulfonyl)phenyl]pyridin-2-yl}-2,4-dihydro-3H-1,2,4-triazol-3-one hydrochloride] |
| 0.39 nM | 26000 nM | 20 nM | 1 to 10 nM | CC(=O)Nc1ccc(-c2ccc(-n3cnn(C/C(=C\F)CN)c3=O)nc2)cc1 [Example 130, N-[4-(6-{1-[(2Z)-2-(aminomethyl)-3-fluoroprop-2-en-1-yl]-5-oxo-1,5-dihydro-4H-1,2,4-triazol-4-yl}pyridin-3-yl)phenyl]acetamide hydrochloride] |
| 0.54 nM | 62000 nM | 850 nM | 280 nM | CC(=O)c1ccc(-c2cnc(-n3cnn(C/C(=C/F)CN)c3=O)c(C)c2)s1 [Example 132, 4-[5-(5-acetylthiophen-2-yl)-3-methylpyridin-2-yl]-2-[(2E)-2-(aminomethyl)-3-fluoroprop-2-en-1-yl]-2,4-dihydro-3H-1,2,4-triazol-3-one hydrochloride] |
| 0.84 nM | > 100000 nM | > 10000 nM | 220 nM | Cc1cc(-c2ccc(S(C)(=O)=O)cc2)cnc1-n1cnn(C/C(=C/F)CN)c1=O [Example 133, 2-[(2E)-2-(aminomethyl)-3-fluoroprop-2-en-1-yl]-4-{3-methyl-5-[4-(methylsulfonyl)phenyl]pyridin-2-yl}-2,4-dihydro-3H-1,2,4-triazol-3-one hydrochloride] |

The next lines start with the compound.

| SMILES | IC50 (recombinant human VAP-1) | IC50 [1] | IC50 [2] | IC50 [3] |
| --- | --- | --- | --- | --- |
| Cc1cc(-n2cnn(C/C(=C/F)CN)c2=O)cnc1-c1ccc2c(c1)OCO2 [Example 117, 2-[(2E)-2-(aminomethyl)-3-fluoroprop-2-en-1-yl]-4-[6-(1,3-benzodioxol-5-yl)-5-methylpyridin-3-yl]-2,4-dihydro-3H-1,2,4-triazol-3-one] | 0.21 nM | > 100000 nM | 32 nM | 2.5 nM |
| Cc1cc(-n2cnn(C/C(=C/F)CN)c2=O)cnc1-c1ccc2sc(N)nc2c1 [Example 118, 4-[6-(2-amino-1,3-benzothiazol-5-yl)-5-methylpyridin-3-yl]-2-[(2E)-2-(aminomethyl)-3-fluoroprop-2-en-1-yl]-2,4-dihydro-3H-1,2,4-triazol-3-one hydrochloride] | 0.34 nM | > 100000 nM | 3040 nM | 1.7 nM |
| CC(=O)Nc1ccc(-c2cc(C)c(-n3cnn(C/C(=C/F)CN)c3=O)cn2)cc1 [Example 120, N-[4-(5-{1-[(2E)-2-(aminomethyl)-3-fluoroprop-2-en-1-yl]-5-oxo-1,5-dihydro-4H-1,2,4-triazol-4-yl}-4-methylpyridin-2-yl)phenyl]acetamide] | 1.4 nM | > 100000 nM | > 10000 nM | 110 nM |
| Cc1cc(-c2ccc(-c3nc[nH]n3)cc2)ncc1-n1cnn(C/C(=C/F)CN)c1=O [Example 121, 2-[(2E)-2-(aminomethyl)-3-fluoroprop-2-en-1-yl]-4-{4-methyl-6-[4-(1H-1,2,4-triazol-3-yl)phenyl]pyridin-3-yl}-2,4-dihydro-3H-1,2,4-triazol-3-one] | 0.7 nM | > 100000 nM | 456 nM | < 100 nM |
| CC(=O)Nc1cc(-c2cc(C)c(-n3cnn(C/C(=C/F)CN)c3=O)cn2)ccn1 [Example 123, N-(5-{1-[(2E)-2-(aminomethyl)-3-fluoroprop-2-en-1-yl]-5-oxo-1,5-dihydro-4H-1,2,4-triazol-4-yl}-4-methyl-2,4′-bipyridin-2′-yl)acetamide] | 1.3 nM | > 100000 nM | 3220 nM | < 100 nM |
| Cc1cc(-c2ccc(N3CCOCC3)nc2)ncc1-n1cnn(C/C(=C/F)CN)c1=O [Example 124, 2-[(2E)-2-(aminomethyl)-3-fluoroprop-2-en-1-yl]-4-[4-methyl-6′-(morpholin-4-yl)-2,3′-bipyridin-5-yl]-2,4-dihydro-3H-1,2,4-triazol-3-one] | 0.89 nM | > 100000 nM | > 10000 nM | < 100 nM |
| Cc1cc(-c2ccc3cn[nH]c3c2)ncc1-n1cnn(C/C(=C/F)CN)c1=O [Example 126, 2-[(2E)-2-(aminomethyl)-3-fluoroprop-2-en-1-yl]-4-[6-(1H-indazol-6-yl)-4-methylpyridin-3-yl]-2,4-dihydro-3H-1,2,4-triazol-3-one] | 0.87 nM | > 100000 nM | 133 nM | < 100 nM |

From patent US11492335B2, “Aryl or heteroaryl triazolone derivatives or salts thereof, or pharmaceutical compositions comprising the same” (YUHAN CORPORATION, priority 2018, dated 2022)
